Marks after values point to notes of the source that are not given here.
Experiments:
[1] = tested on: B(a)P-induced lung adenoma; assay: Tumor bioassay: B(a)P-induced lung tumorigenesis, ITC-NAC conjugates in diet during post-initiation phase
Protocol: The ITC conjugates were incorporated (15 μmol/g diet) into AIN-76A diets (5% corn oil) by mixing with dextrose prior to diet preparation. The conjugates, 9.36 g BITC-NAC (15 mmol) or 9.79 g PEITC-NAC (15 mmol), were dissolved in 50 ml ethyl acetate, and then mixed with 200 g dextrose to ensure even coating of dextrose particles. After mixing with dextrose, the solvent was removed using a rotary evaporator and further dried using a vacuum pump (2-3 h). Diets were prepared in 1-2 kg batches, and were stored at 4° C. in a container purged with nitrogen. […] Stability was determined by extraction of 0.5 g portions of the diet with 2.5 ml methanol (2×). The methanol extracts were combined and a 1 ml aliquot was filtered using a 0.47 μm syringe filter. A 10 μl sample was then analyzed on HPLC (Jiao, et al., Chem. Res. Toxicol., 9: 932-938, 1996).
Tumor Bioassay: Female strain A mice (Jackson Laboratories, Bar Harbor, Me.) of four weeks of age were housed under quarantine in polycarbonate cages (5 mice/cage) and provided modified AIN 76A diet (5% corn oil) and acidified drinking water ad libitum. The mice were maintained on a 12 h light: 12 h dark regimen at 22±5° C. and 50±20% relative humidity. After one week, the mice were weighed, and distributed into four groups containing 30 to 35 mice on the basis of body weight. At seven weeks of age, the mice in groups 1-3 were gavaged with a single dose of 20 μmol B(a)P in 0.2 ml cottonseed oil; group 4 received the vehicle only. Two days after dosing with the carcinogen, diets containing BITC-NAC (15 μmol/g, Group 2) and PEITC-NAC (15 μmol/g, Group 3) were provided. Groups 1 (B[a]P control) and 4 (vehicle only) remained on the modified AIN-76A diet with 5% corn oil. Tap water was provided ad libitum during the course of the bioassay. Mice were observed daily; diets were replenished on the fourth day of the week, and completely replaced on the seventh day. Mice were weighed weekly for four weeks, then monthly and at termination. At 84 days after B(a)P dosing, four mice per group were killed (CO2, cervical dislocation) to harvest lung tissues for molecular and immunohistochemical studies and to quantify lung adenomas, if present. At 140 days after B(a)P, the remaining mice in each group were killed. The number of lung tumors was recorded; lobes of lungs were placed in 10% phosphate buffered formalin for histological and immunohistochemical analysis. The remaining lung lobes were snap frozen in liquid nitrogen.
Mean tumor multiplicity and body weights at each time point were compared between groups using Student's T test.

p53 = assay: Western blot of lung proteins: p53 expression and phosphorylation; type: in vivo, A/J mice; details: lungs at termination of the bioassay
[2] = tested on: AP-1 binding activity in A549 cells; assay: EMSA of AP-1 binding activity in A549 cells; type: cell-based, human
Protocol: Cell Lines: The human lung adenocarcinoma cell line A549 was obtained from the American Type Culture Collection (ATCC) (Bethesda, Md.). […] Cells were grown at 37° C. with 5% CO2.
Reagents: The PEITC was obtained from Aldrich (Milwaukee, Wis.) and its N-acetylcysteine conjugate was synthesized in house by the Organic Synthesis Facility using the method described previously (Kassahun et al., Chem Res Toxicol 1997, 10(11):1228-33). Unless specified otherwise, the A549 cells were treated with 10 or 25 μM of PEITC-NAC. TPA (12-O-tetradecanoylphorbol-13-acetate) was purchased from Sigma (St. Louis, Mo.).
Electrophoretic Mobility Shift Assay (EMSA): Double-stranded oligonucleotides containing the consensus-binding site for AP-1 were purchased commercially (Santa Cruz Biotech). The oligos were labeled with γ-^32P-ATP (6000 Ci/mmol, Armeshem Pharmacia Biotech. Inc Piscataway, N.J.) using polynucleotide kinase (Promega, Madison, Wis.) according to standard procedures. The labeled DNA was incubated with 5 μg of total proteins (as specified in the Results section) for 10 min at room temperature, in the presence of 1 μg of poly d(I)-d(C) oligomer (Roche Molecular Biochemicals, Indianapolis, Ind.) and DNA-binding buffer as described previously (Yang et al., Cell Growth Differ 1993, 4(7):595-602). The complexes were then separated on a 7.5% polyacrylamide gel and autoradiographed.
Proteins Isolation: Cells were incubated in a 37° C. with 5% CO2, followed by mock or treatments specified in the results section. Total proteins were then isolated using RIPA buffer. The protease inhibitors aprotinin (1 μg/ml), leupeptin (1 μg/ml), pepstatin (1 μg/ml), phenylmethylsulfonyl fluoride (0.1 mM) and the phosphatase inhibitor Na3VO4 (1 mM), NaF (1 mM) were added to all buffers. The protein concentrations were determined using the Coomassie Plus Protein Assay Reagent (Pierce, Rockford, Ill.), and aliquots of the proteins were stored at −80° C.

[3] = tested on: A549/control-vector cells; assay: Apoptosis in A549/control-vector transfectants (morphology, DNA fragmentation, annexin V, PARP Western blot); type: cell-based, human; details: 25 μM
A549 cells = assay: Apoptosis in A549 cells treated with TPA, PEITC-NAC or TPA plus PEITC-NAC (photography, DAPI staining); type: cell-based, human; details: TPA 100 nM 12 h prior, then PEITC-NAC 24 h
From the text: Assay for single cell DNA strand breaks: A549 cells treated with or without TPA, PEITC-NAC or TPA plus PEITC-NAC were collected at the times specified in the text, cytocentrifuged and stained with 4′-6′diamidino-2-phenylindole (DAPI). The photographs were taken using an Olympus AX 70 microscope (Melville, N.Y.) with fluorescence and SPOT RT Slider digital image system (Diagnostic Instruments Inc., Sterling Heights, Mich.). Arrows indicated the typical apoptotic features of DNA strand breakage and nuclear fragmentation.
TPA (100 nM) was added to A549 cells 12 h prior to addition of PEITC-NAC, which was added 24 h before photography of cells, protein isolation, or DAPI staining. […] These cells were treated identically, but were stained with the DNA fluorochrome DAPI.

## CC(=O)N[C@@H](CSC(=S)NCCc1ccccc1)C(=O)O [PEITC-NAC, N-acetylcysteine Conjugate of phenethyl isothiocyanate]
[1]; 15 μmol/g diet after B(a)P, at termination, B(a)P control 6.1±3.1
  tumor multiplicity: 3.4±2.7 tumors/mouse
[1]; 15 μmol/g diet from 2 days after 20 μmol B(a)P, 140 days
  Tumor Incidence (%), lung adenoma: 89%
[1]; 15 μmol/g diet from 2 days after 20 μmol B(a)P, 140 days, mean ± SD
  Tumor multiplicity (no. of tumors/mice), lung adenoma: 3.39 ± 2.71^b no. of tumors/mice
[1]; 15 μmol/g diet, controls 25.8 g and 25.7 g
  average body weight at termination: 22.8 g
[1]; versus B(a)P control diet group, at termination
  tumor reduction: 44%
p53
  phosphorylation of p53 at Ser15: stronger increase
[2]; 10 μM
  earliest appearance of AP-1 activation: 30 min
[2]; 24 h treatment
  concentration of peak AP-1 binding activity: 10 µM
  lowest concentration stimulating AP-1 activation: 1 µM
[3]; 3 h
  PARP 89 kD cleavage fragment: a very light 89 kD cleavage fragment
[3]; 24 h
  PARP protein: maintained a significant levels of intact PARP protein
  cell survival (morphology, DNA fragmentation): the majority of control-vector transfectants were still alive
A549 cells
  incidence of apoptosis in TPA-pretreated cells compared with PEITC-NAC alone: a much higher incidence of apoptosis
